Test results as given in patent US11591323B2, “Muscarinic agonists as non-steroidal and non-opioid analgesics and methods of use thereof” (Barry University, priority 2019, dated 2023).
Like-named read-outs stand apart in the source and are kept apart here.

Columns and labels:
Type in all cases: cell-based
[1] = biological target: T1, M2 muscarinic receptor (Homo sapiens, UniProt P08172); experiment: stimulation of cAMP, M2 CHO cells (M2Gs); set-up: host or cells: CHO cells, stably transfected; settings: for RAi: Table 8, relative to carbachol; for Δlog(τ/KA): Table 8, to carbachol
T1 sequence (P08172 1-466): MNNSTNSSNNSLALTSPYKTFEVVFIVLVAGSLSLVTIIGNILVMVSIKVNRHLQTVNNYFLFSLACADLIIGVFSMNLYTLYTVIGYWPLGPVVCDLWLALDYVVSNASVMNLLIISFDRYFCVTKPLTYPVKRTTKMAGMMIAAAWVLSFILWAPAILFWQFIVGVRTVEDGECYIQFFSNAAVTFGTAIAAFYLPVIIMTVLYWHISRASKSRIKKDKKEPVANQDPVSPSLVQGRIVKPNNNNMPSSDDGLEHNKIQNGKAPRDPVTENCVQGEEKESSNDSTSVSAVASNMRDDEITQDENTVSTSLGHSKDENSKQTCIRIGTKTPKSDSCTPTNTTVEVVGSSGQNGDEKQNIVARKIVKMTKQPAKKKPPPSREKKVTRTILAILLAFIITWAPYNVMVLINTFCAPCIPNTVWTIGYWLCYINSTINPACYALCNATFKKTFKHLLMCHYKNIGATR
Description: (§1) To determine level of cAMP, cells in suspension were pre-incubated for 1 h with 0.4 μM [^3H]adenine, washed, and incubated for 10 min in the presence of isobutylmethylxanthine and 10 μM forskolin. […] Incubation was ended by addition of 0.2 ml of 2.5 M HCl to the samples. Samples were applied to alumina columns (1.5 g of alumina per column), washed with 2 ml ammonium acetate (pH=7.0) and eluted from columns with 4 ml ammonium acetate and measured by liquid scintillation spectrometry. […] The incubation was stopped by addition of 0.5 ml of chloroform methanol HCl mixture (2:1:0.1). After separation of water and organic phases, 0.6 ml of water phase was applied to Dowex columns (1.5 g of Dowex per column), washed by 20 ml of 60 mM ammonium formate/5 mM sodium borate buffer and eluted from columns with 4 ml of 1M ammonium formate/0.1 formic acid buffer and measured by liquid scintillation spectrometry.
(§2) Measurements of the production of cAMP and inositol phosphates: Levels of second messengers cAMP and inositol phosphates were determined in radiochemical chromatography assays as described previously. To determine level of cAMP, cells in suspension were pre-incubated for 1 h with 0.4 μM [^3H]adenine, washed, and incubated for 10 min in the presence of isobutylmethylxanthine and 10 μM forskolin. […] Incubation was ended by addition of 0.2 ml of 2.5 M HCl to the samples. Samples were applied to alumina columns (1.5 g of alumina per column), washed with 2 ml ammonium acetate (pH=7.0) and eluted from columns with 4 ml ammonium acetate and measured by liquid scintillation spectrometry. […] For this purpose, new CHO cell lines stably expressing promiscuous G15 G-protein and M2 or M4 receptor were generated by transfection with pCMV/hygro vector and hygromycin selection. To determine the rate of formation of inositol phosphates IPX, suspended cells were pre-incubated with 0.1 μM [^3H]myo-inositol for 60 min, washed, and incubated with 10 mM LiCl for 15 min. […] The incubation was stopped by addition of 0.5 ml of chloroform methanol HCl mixture (2:1:0.1). After separation of water and organic phases, 0.6 ml of water phase was applied to Dowex columns (1.5 g of Dowex per column), washed by 20 ml of 60 mM ammonium formate/5 mM sodium borate buffer and eluted from columns with 4 ml of 1M ammonium formate/0.1 formic acid buffer and measured by liquid scintillation spectrometry.
(§3) For bi-phasic response, curves were inhibitory and stimulatory phase were fitted separately. Operational Model of Functional Agonism
(§4) [formula] where y is functional response at concentration of tested compound x, EMAX is maximal response of the system, KA is equilibrium dissociation constant and nH is slope factor. Eq. 5 was fitted to data from functional experiments. Eq. 5 was fitted to data by the two-step procedure described earlier. […] In the second step, Eq. 5 with EMAX fixed to the value determined in the first step was fitted to individual experimental data sets. Relative Intrinsic Activity

[2] = biological target: M3 muscarinic receptor (Homo sapiens, UniProt P20309); experiment: stimulation of cAMP, M3 CHO cells (M3Gs); set-up: host or cells: CHO cells, stably transfected
Description: (§5) Since activation of phospholipase C (PLC) via M2 and M4 receptors is weak, cells were transferred with G15 G-protein to facilitate coupling.
as §1, §2, §3, §4
(§6) Muscarinic receptors are also able to stimulate non-preferential signalling pathways.

[3] = biological target: T1, M2 muscarinic receptor; experiment: accumulation of IPX, M2 CHO cells with promiscuous G15 G-protein (M2Gq+G15); set-up: expressed in transfected cells; host or cells: CHO cells, pCMV/hygro vector, hygromycin selection; settings: for RAi / E′MAX / τ / Δlog(τ/KA): M2Gq ± G15 (↑IPX); for RAi: Table 8, relative to carbachol; for accumulation of IPX: M2 co-transfected with G15, in words; for E′MAX / τ: Table 8; for Δlog(τ/KA): Table 8, to carbachol
Description: as §5, §1, §2, §3, §4, §6

[4] = M3Gs (↑cAMP), Table 8, relative to carbachol

Sequence of M3 muscarinic receptor (P20309 whole entry): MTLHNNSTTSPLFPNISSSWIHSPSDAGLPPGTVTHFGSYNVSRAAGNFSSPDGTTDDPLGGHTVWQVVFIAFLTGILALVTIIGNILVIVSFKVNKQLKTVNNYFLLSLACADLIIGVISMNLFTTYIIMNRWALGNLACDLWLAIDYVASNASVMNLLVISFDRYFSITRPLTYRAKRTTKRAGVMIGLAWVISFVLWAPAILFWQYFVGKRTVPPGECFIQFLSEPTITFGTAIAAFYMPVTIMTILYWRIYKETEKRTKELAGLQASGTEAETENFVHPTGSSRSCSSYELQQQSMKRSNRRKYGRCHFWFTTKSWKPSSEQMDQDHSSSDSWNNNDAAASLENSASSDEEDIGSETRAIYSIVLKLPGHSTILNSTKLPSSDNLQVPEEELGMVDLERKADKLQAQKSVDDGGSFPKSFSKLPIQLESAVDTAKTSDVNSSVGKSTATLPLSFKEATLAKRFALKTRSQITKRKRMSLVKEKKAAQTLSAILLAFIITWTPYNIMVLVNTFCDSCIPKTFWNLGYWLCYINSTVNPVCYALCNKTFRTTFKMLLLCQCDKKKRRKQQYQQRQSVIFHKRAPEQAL

| SMILES | RAi ([1]; M2Gs (↑cAMP)) | RAi [2, 4] | RAi [3] | accumulation of IPX [3] | EC50 [1] [nM] | Kd [1] [nM] | E′MAX ([1]; M2Gs (↑cAMP), Table 8) [fold increase] | τ ([1]; M2Gs (↑cAMP), Table 8) | Δlog(τ/KA) ([1]; M2Gs (↑cAMP)) | EC50 [2] [nM] | E′MAX [2] [fold increase] | Kd [2] [nM] | RAi [2] | Δlog(τ/KA) [2] | τ [2] | EC50 [3] [nM] | Kd [3] [nM] | E′MAX [3] [fold over basal] | τ [3] | Δlog(τ/KA) [3] |
| --- | --- | --- | --- | --- | --- | --- | --- | --- | --- | --- | --- | --- | --- | --- | --- | --- | --- | --- | --- | --- |
| C[N+]1(Cc2cccs2)CC=CCC1.[I-] (centres unmarked) [Compound 7A, 1-methyl-1-[(thiophen-2-yl)methyl]-1,2,3,6-tetrahydropyridin-1-ium iodide] | 0 | 0 | 0 | did not stimulate IPX accumulation | – | – | – | – | – | – | – | – | – | – | – | – | – | – | – | – |
| O=C1CCCN1CC#CCN1CCCC1 [oxotremorine, reference compound] | 2.65 ± 0.018 | – | 2.41 ± 0.22 | – | 1150 | 3980 | 3.1 ± 0.2 | 2.3 ± 0.2 | −0.42 ± 0.04 | 2630 | 1.9 ± 0.1 | 3980 | 4.23 ± 0.28 | −0.63 ± 0.06 | 0.48 ± 0.05 | 70.8 | 200 | 4.1 ± 0.3 | 1.9 ± 0.2 | −0.38 ± 0.05 |
| C1=CCN(Cc2cccs2)CC1.Cl [Compound 6A, 1-[(thiophen-2-yl)methyl]-1,2,3,6-tetrahydropyridin-1-ium chloride] | 0 | 0 | 0 | did not stimulate IPX accumulation | – | – | – | – | – | – | – | – | – | – | – | – | – | – | – | – |
| C[N+](C)(C)CCOC(N)=O [carbachol, reference compound] | – | – | – | stimulated accumulation of IPX | – | – | 3.6 ± 0.2 | – | 0 | – | – | – | – | – | – | – | – | 4.9 ± 0.3 | 4.5 ± 0.5 | 0 |
